# Experimental data as given in patent US9518284B2 (priority 2001, dated 2016).
# Like-named read-outs stand apart in the source and are kept apart here.
# System: yeast cells overexpressing WT alpha-synuclein
# Assay type: cell-based, Saccharomyces cerevisiae
# [1] = preliminary study, concentration not given
# [2] = preliminary study, agent at 5 μM
compound,measurement,setting,value
C=CCC(N)C(=O)O (racemic) [DL-C-allylglycine],ability to alleviate toxicity caused by alpha-synuclein overexpression,"preliminary study, agent at 0.025 mg/ml",alleviate toxocity
O=c1cn[nH]c(=O)[nH]1 [6-azauracil],effect on the growth of yeast cells overexpressing WT alpha-synuclein,agent at 30 μg/ml,negative effect on the growth
C[C@@H](O)CC(=O)O [(R)-(−)-3-hydroxybutirate],ability to alleviate toxicity caused by alpha-synuclein overexpression,[1],alleviate toxocity
[Ca+2].[Cl-].[Cl-] [CaCl2],effect on the growth of yeast cells overexpressing WT alpha-synuclein,agent at 0.5 M,negative effect on the growth
[Cl-].[Cl-].[Co+2] [CoCl2],effect on the growth of yeast cells overexpressing WT alpha-synuclein,,negative effect on the growth
Nc1c(/N=N/c2ccc(-c3ccc(/N=N/c4cc(S(=O)(=O)O)c5ccccc5c4N)cc3)cc2)cc(S(=O)(=O)O)c2ccccc12 [Congo Red],ability to alleviate toxicity caused by alpha-synuclein overexpression,[2],alleviate toxocity
[Cl-].[Cs+] [CsCl],effect on the growth of yeast cells overexpressing WT alpha-synuclein,agent at 0.1 M,negative effect on the growth
O=S(=O)([O-])[O-].[Cu+2] [CuSo4],effect on the growth of yeast cells overexpressing WT alpha-synuclein,agent at 2.5 mM,negative effect on the growth
same,effect on the growth of yeast cells overexpressing WT alpha-synuclein,agent at 5 mM,negative effect on the growth
C[C@]12CC[C@H]3[C@@H](CCC4=CC(=O)CC[C@@]43C)[C@@H]1CC[C@@H]2C(=O)CO [Deoxycorticosterone],ability to alleviate toxicity caused by alpha-synuclein overexpression,[1],alleviate toxocity
O=S(=O)([O-])[O-].O=S(=O)([O-])[O-].O=S(=O)([O-])[O-].[Fe+3].[Fe+3] [Fe2(SO4)3],effect on the growth of yeast cells overexpressing WT alpha-synuclein,agent at 8.5 mM,negative effect on the growth
[Cl][Fe][Cl] [FeCl2],effect on the growth of yeast cells overexpressing WT alpha-synuclein,agent at 10 mM,negative effect on the growth
same,effect on the growth of yeast cells overexpressing WT alpha-synuclein,agent at 15 mM,negative effect on the growth
same,effect on the growth of yeast cells overexpressing WT alpha-synuclein,agent at 23 mM,negative effect on the growth
same,effect on the growth of yeast cells overexpressing WT alpha-synuclein,agent at 50 mM,negative effect on the growth
O=S(=O)([O-])[O-].[Fe+2] [FeSO4],effect on the growth of yeast cells overexpressing WT alpha-synuclein,agent at 20 mM,negative effect on the growth
Cl.N=C(N)N [GuHCl],effect on the growth of yeast cells overexpressing WT alpha-synuclein,agent at 20 (unit not given),negative effect on the growth
CN[C@H]1C[C@@H](N)[C@H](O)[C@@H](O[C@@H]2O[C@H](CO)[C@H](O)[C@@H]3OC4(O[C@H]23)O[C@H]([C@@H](N)CO)[C@H](O)[C@H](O)[C@H]4O)[C@@H]1O (some centres unmarked) [Hygromycin B],ability to alleviate toxicity caused by alpha-synuclein overexpression,"preliminary study, agent at 50 μg/ml",alleviate toxocity
"N[C@@H](Cc1ccc(O)c(O)c1)C(=O)O [L-DOPA, L-dihydroxyphenylalanine]",ability to alleviate toxicity caused by alpha-synuclein overexpression,[1],alleviate toxocity
CCSCC[C@H](N)C(=O)O [L-ethionine],ability to alleviate toxicity caused by alpha-synuclein overexpression,"preliminary study, agent at 1 μg/ml",alleviate toxocity
[Cl-].[Cl-].[Mg+2] [MgCl2],effect on the growth of yeast cells overexpressing WT alpha-synuclein,agent at 0.5 M,negative effect on the growth
O=S(=O)([O-])[O-].[Mg+2] [MgSO4],effect on the growth of yeast cells overexpressing WT alpha-synuclein,agent at 0.5 M,negative effect on the growth
[Cl-].[Rb+] [RbCl],effect on the growth of yeast cells overexpressing WT alpha-synuclein,agent at 0.2 M,negative effect on the growth
[Cl-].[Cl-].[Sr+2] [SrCl2],effect on the growth of yeast cells overexpressing WT alpha-synuclein,agent at 0.5 M,negative effect on the growth
O=C[C@@H](O)[C@H](O)[C@H](O)CO [arabinose],effect on the growth of yeast cells overexpressing WT alpha-synuclein,agent at 2% in medium,negative effect on the growth
C[C@H]1CCC/C=C/[C@@H]2C[C@H](O)C[C@H]2[C@H](O)/C=C/C(=O)O1 [brefeldin A],effect on the growth of yeast cells overexpressing WT alpha-synuclein,agent at 100 μg/ml,negative effect on the growth
CC[C@@]1(O)C(=O)OCc2c1cc1n(c2=O)Cc2cc3ccccc3nc2-1 [camptothecin],effect on the growth of yeast cells overexpressing WT alpha-synuclein,agent at 5 μg/ml,negative effect on the growth
same,ability to alleviate toxicity caused by alpha-synuclein overexpression,"preliminary study, agent at 0.1 μg/ml",alleviate toxocity
O=C(O)CCCc1ccc(N(CCCl)CCCl)cc1 [chlorambucil],effect on the growth of yeast cells overexpressing WT alpha-synuclein,agent at 3 mM,negative effect on the growth
CCN(CC)CCCC(C)Nc1ccnc2cc(Cl)ccc12 (centres unmarked) [chloroquine],ability to alleviate toxicity caused by alpha-synuclein overexpression,"preliminary study, agent at 4.2 μM",alleviate toxocity
O=C(O)c1cc(/N=N/c2ccc(-c3ccc(/N=N/c4ccc(O)c(C(=O)O)c4)cc3)cc2)ccc1O [chrysamine G],ability to alleviate toxicity caused by alpha-synuclein overexpression,"preliminary study, agent at 1.0 μM",alleviate toxocity
Oc1c(I)cc(Cl)c2cccnc12 [clioquinol],ability to alleviate toxicity caused by alpha-synuclein overexpression,[2],alleviate toxocity
NC=O [formamide],effect on the growth of yeast cells overexpressing WT alpha-synuclein,agent at 2% in medium,negative effect on the growth
N[C@@H](CCC(=O)N[C@@H](CS)C(=O)NCC(=O)O)C(=O)O [glutathione],ability to alleviate toxicity caused by alpha-synuclein overexpression,,alleviate toxocity
NC(=O)NO [hydroxyurea],effect on the growth of yeast cells overexpressing WT alpha-synuclein,agent at 5 mg/ml,negative effect on the growth
CC1=CC(=O)c2ccccc2C1=O [menadione],effect on the growth of yeast cells overexpressing WT alpha-synuclein,agent at 20-50 μM,negative effect on the growth
C[n+]1ccc(-c2cc[n+](C)cc2)cc1 [paraquat],effect on the growth of yeast cells overexpressing WT alpha-synuclein,agent at 1 mM,negative effect on the growth
NC[C@@H]1O[C@H](O[C@H]2[C@@H](O)[C@H](O[C@@H]3[C@@H](O)[C@H](N)C[C@H](N)[C@H]3O[C@H]3O[C@H](CO)[C@@H](O)[C@H](O)[C@H]3N)O[C@@H]2CO)[C@H](N)[C@@H](O)[C@@H]1O [paromomycin],ability to alleviate toxicity caused by alpha-synuclein overexpression,"preliminary study, agent at 200 μg/ml",alleviate toxocity
N[C@@H](CO)C(=O)O [serine],ability to alleviate toxicity caused by alpha-synuclein overexpression,"preliminary study, agent at 1 mg/ml",alleviate toxocity
NC(N)=O [urea],effect on the growth of yeast cells overexpressing WT alpha-synuclein,agent at 1 mg/ml,negative effect on the growth
[O]=[V]([O-])([O-])[O-] [vanadate],effect on the growth of yeast cells overexpressing WT alpha-synuclein,agent at 0.1 mM,negative effect on the growth
same,effect on the growth of yeast cells overexpressing WT alpha-synuclein,agent at 1 mM,negative effect on the growth
same,effect on the growth of yeast cells overexpressing WT alpha-synuclein,agent at 2 mM,negative effect on the growth
same,effect on the growth of yeast cells overexpressing WT alpha-synuclein,agent at 4 mM,negative effect on the growth
same,effect on the growth of yeast cells overexpressing WT alpha-synuclein,agent at 7 mM+KCl,negative effect on the growth
bleomycin,effect on the growth of yeast cells overexpressing WT alpha-synuclein,agent at 1 μg/ml,negative effect on the growth
protamine sulphate,ability to alleviate toxicity caused by alpha-synuclein overexpression,"preliminary study, agent at 250 μM",alleviate toxocity
